Patent publication US12152048B2, “Nitroxoline prodrug and use thereof” (Jiangsu Yahong Meditech Co., Ltd., priority 2018, dated 2024)
≈ marks a conversion by molar mass, not a printed value.

Legend:
Stability in dog plasma = assay type: in vitro ADME
[1] = Stability in human plasma
Description: (§1) Experimental instruments: thermostatic shaker (SHA-B, Guohua Electric Appliance Co., Ltd.); centrifuge (5810R, Eppendorf); mass spectrometry (AP4000, Applied Biosystems, USA); liquid chromatography (LC-30AD, Shimadzu); sample injector (CTC Analytics AG System, CTC).
(§2) Test animals: plasma of human (batch number: BRH1343165), rat (batch number: RAT336728), mouse (batch number: MSE280000), dog (batch number: BGL99137) and monkey (batch number: PH-Monkey-20180821) are purchased from Shanghai Sixin Biological Technology Co., Ltd.
(§3) Experimental process: the compound of the present invention was dissolved in an organic solvent to obtain a 1 mM working solution. 3 μL of the working solution were added to 597 μL of pre-incubated human or rat plasma and mixed well. 50 μL of the solution were immediately taken out as the 0 minute sample. The remaining sample was incubated at 37° C., and 50 μL of sample were taken out at 15, 30, 60 and 120 minutes respectively. All the samples taken out were immediately processed to precipitate protein, and centrifuged to obtain a supermate for the determination of the compound concentration by LC/MS/MS.

[2] = Stability in plasma, overall conclusion (species not stated); conditions: conclusion in words
[3] = Determination of water solubility in phosphate buffer; assay type: physicochemical; conditions: for solubility at 24 h: aqueous buffer, thermodynamic from solid, phosphate buffer pH 7.4, room temperature
Description: Experimental instruments: 96-well filter plate (MSHVN4510 or MSHVN4550, Millipore); electronic digital display vortex mixer (MS3 Digital, IKA); multi-purpose vacuum pump (circulating water type, SHB-111, Zhengzhou Greatwall Scientific Industrial and Trade Co., Ltd.); balance (XSLT05, Mettler-Toledo); comfortable mixer (Eppendorf AG 22331 Hamburg, Eppendorf); liquid chromatography (LC-3AD, Shimadzu); mass spectrometry (API4000, Applied Biosystems, USA); sample injector (Anylytics AG System, CTC). Nitroxoline was prepared according to the method disclosed in Journal of Heterocyclic Chemistry, 1971, vol. 8, p 821 by Wisdom Pharmaceutical Co., Ltd.
Experimental process: 500 μL of phosphate buffer (pH=1.2, 4.5, 6.8 or 7.4) were added to a glass flask, to which 2 mg of compound powder were added. The flask was sealed with a cap and shaked on a mixer (VORTEX-GENIE2) at room temperature for 24 hours. The solution was subjected to vacuum filtration, and the filtrate was processed to determine the compound concentration by LC/MS/MS.

[4] = Stability in mouse liver microsome; assay type: in vitro ADME; conditions: 2 μM, 37° C., 30 minutes
[5] = Stability in dog liver microsome; conditions: 2 μM, 37° C., 30 minutes
[6] = Stability in rat liver microsome; conditions: 2 μM, 37° C., 30 minutes
Description: (§4) Experimental instruments: thermostatic shaker (SHA-B, Guohua Electric Appliance Co., Ltd.); centrifuge (5810R, Eppendorf); mass spectrometry (API4000, Applied Biosystems, USA); liquid chromatography (LC-30AD, Shimadzu); sample injector (CTC Analytics AG System, CTC).
(§5) Experimental process: 25 μg/mL alamethicin (Aldrich), 5 mM magnesium chloride and 0.5 mg/mL microsome (XENOTECH) were added to 100 mM phosphate buffer to obtain a coenzyme-free reaction solution. A portion of the coenzyme-free reaction solution was added with 1 mM reductive nicotinamide adenine dinucleotide phosphate (Aldrich) and 5 mM uridine diphosphate glucuronic acid (Aldrich) to obtain a coenzyme-containing reaction solution. The working solution of the compound of the present invention was added to the two reaction solutions so that the final concentration of the compound was 2 μM. Immediately after mixing well, 50 μL of the solution were taken out as the 0 minute sample, and 50 μL of the remaining sample were taken out after incubating at 37° C. for 30 minutes. All the samples taken out were immediately processed to precipitate protein, and centrifuged to obtain a supernate for the determination of the compound concentration by LC/MS/MS.

[7] = Stability in human liver microsome; conditions: 2 μM, 37° C., 30 minutes
Description: as §4, §5

[8] = Stability in monkey plasma; assay type: in vitro ADME
Description: as §1, §2, §3

Percentage of the compound remaining in plasma (Stability in dog plasma; 0 minute) [%] | Percentage of the compound remaining in plasma (Stability in rat plasma; 0 minute) [%] | Percentage of the compound remaining in plasma (Stability in rat plasma; 37° C., 15 minutes) [%] | Percentage of the compound remaining in plasma (Stability in rat plasma; 37° C., 30 minutes) [%] | Percentage of the compound remaining in plasma (Stability in rat plasma; 37° C., 60 minutes) [%] | Percentage of the compound remaining in plasma (Stability in rat plasma; 37° C., 120 minutes) [%] | Percentage of the compound remaining in plasma ([1]; 0 minute) [%] | Percentage of the compound remaining in plasma ([1]; 37° C., 15 minutes) [%] | Percentage of the compound remaining in plasma ([1]; 37° C., 30 minutes) [%] | Percentage of the compound remaining in plasma ([1]; 37° C., 60 minutes) [%] | Percentage of the compound remaining in plasma ([1]; 37° C., 120 minutes) [%] | solubility at 24 h [3] [µg/mL] | Percentage of the compound remaining in mouse liver microsome ([4]; with coenzyme) [%] | Percentage of the compound remaining in mouse liver microsome ([4]; without coenzyme) [%] | Percentage of the compound remaining in dog liver microsome ([5]; with coenzyme) [%] | Percentage of the compound remaining in dog liver microsome ([5]; without coenzyme) [%] | Percentage of the compound remaining in rat liver microsome ([6]; with coenzyme) [%] | Percentage of the compound remaining in rat liver microsome ([6]; without coenzyme) [%] | Percentage of the compound remaining in human liver microsome ([7]; with coenzyme) [%] | Percentage of the compound remaining in human liver microsome ([7]; without coenzyme) [%] | SMILES | also measured
100.0 | 100.0 | 95.8 | 94.1 | 92.4 | 92.4 | 100.0 | 102.3 | 100.9 | 103.1 | 100.3 |  |  |  |  |  |  |  |  |  | C[C@@H]1CN(C(=O)OCOc2ccc([N+](=O)[O-])c3cccnc23)C[C@H](C)O1 [Compound 59, (2S,6R)-(5-nitroquinolin-8-yloxy)methyl 2,6-dimethylmorpholine-4-carboxylate] | Percentage of the compound remaining in plasma (Stability in dog plasma; 37° C., 15 minutes): 96.7%; Percentage of the compound remaining in plasma (Stability in dog plasma; 37° C., 30 minutes): 95.0%; Percentage of the compound remaining in plasma (Stability in dog plasma; 37° C., 60 minutes): 102.8%; Percentage of the compound remaining in plasma (Stability in dog plasma; 37° C., 120 minutes): 99.9%; stability in plasma [2]: high stability
100.0 | 100.0 | 0.0 | 0.0 | 0.0 | 0.0 | 100.0 | 95.2 | 83.6 | 60.9 | 21.6 |  |  |  |  |  |  |  |  |  | COC(=O)[C@H](Cc1ccccc1)NC(=O)OCOc1ccc([N+](=O)[O-])c2cccnc12 [Compound 58, methyl (S)-2-(((5-nitroquinolin-8-yloxy)methoxy)formamido)-3-phenylpropionate] | Percentage of the compound remaining in plasma (Stability in dog plasma; 37° C., 15 minutes): 96.3%; Percentage of the compound remaining in plasma (Stability in dog plasma; 37° C., 30 minutes): 90.4%; Percentage of the compound remaining in plasma (Stability in dog plasma; 37° C., 60 minutes): 74.4%; Percentage of the compound remaining in plasma (Stability in dog plasma; 37° C., 120 minutes): 49.8%; stability in plasma [2]: high stability
 |  |  |  |  |  |  |  |  |  |  | 285 | 0.04 | 0.04 | 0.01 | 0.02 | 0.01 | 0.02 | 0.03 | 0.02 | CC(=O)OC(C)Oc1ccc([N+](=O)[O-])c2cccnc12 (stereo not shown) [Compound 47, 1-(5-nitroquinolin-8-yloxy)ethyl acetate] | 

Second part, the compound before the results:

SMILES | Percentage of the compound remaining in plasma (Stability in dog plasma; 0 minute) [%] | Percentage of the compound remaining in plasma (Stability in rat plasma; 0 minute) [%] | Percentage of the compound remaining in plasma (Stability in rat plasma; 37° C., 15 minutes) [%] | Percentage of the compound remaining in plasma (Stability in rat plasma; 37° C., 30 minutes) [%] | Percentage of the compound remaining in plasma (Stability in rat plasma; 37° C., 60 minutes) [%] | Percentage of the compound remaining in plasma (Stability in rat plasma; 37° C., 120 minutes) [%] | Percentage of the compound remaining in plasma ([1]; 0 minute) [%] | Percentage of the compound remaining in plasma ([1]; 37° C., 15 minutes) [%] | Percentage of the compound remaining in plasma ([1]; 37° C., 30 minutes) [%] | Percentage of the compound remaining in plasma ([1]; 37° C., 60 minutes) [%] | Percentage of the compound remaining in plasma ([1]; 37° C., 120 minutes) [%] | solubility at 24 h [3] [µg/mL] | Percentage of the compound remaining in mouse liver microsome ([4]; with coenzyme) [%] | Percentage of the compound remaining in mouse liver microsome ([4]; without coenzyme) [%] | Percentage of the compound remaining in dog liver microsome ([5]; with coenzyme) [%] | Percentage of the compound remaining in dog liver microsome ([5]; without coenzyme) [%] | Percentage of the compound remaining in rat liver microsome ([6]; with coenzyme) [%] | Percentage of the compound remaining in rat liver microsome ([6]; without coenzyme) [%] | Percentage of the compound remaining in human liver microsome ([7]; with coenzyme) [%] | Percentage of the compound remaining in human liver microsome ([7]; without coenzyme) [%] | also measured
CC(C)C(=O)OCOc1ccc([N+](=O)[O-])c2cccnc12 [Compound 3, (5-nitroquinolin-8-yloxy)methyl isobutyrate] |  |  |  |  |  |  |  |  |  |  |  | 59.2 (≈ 204 µM) | 0.01 | 0.01 | 0.16 | 0.19 | 0.08 | 0.04 | 0.05 | 0.06 | 
CC(C)(C)C(=O)OCOc1ccc([N+](=O)[O-])c2cccnc12 [Compound 4, (5-nitroquinolin-8-yloxy)methyl pivalate] | 100.0 | 100.0 | 0.0 | 0.0 | 0.0 | 0.0 | 100.0 | 80.9 | 70.7 | 54.7 | 31.4 |  |  |  |  |  |  |  |  |  | Percentage of the compound remaining in plasma (Stability in dog plasma; 37° C., 15 minutes): 80.0%; Percentage of the compound remaining in plasma (Stability in dog plasma; 37° C., 30 minutes): 56.3%; Percentage of the compound remaining in plasma (Stability in dog plasma; 37° C., 60 minutes): 32.7%; Percentage of the compound remaining in plasma (Stability in dog plasma; 37° C., 120 minutes): 18.2%; Percentage of the compound remaining in plasma ([8]; 0 minute): 100.0%; Percentage of the compound remaining in plasma ([8]; 37° C., 15 minutes): 4.8%; Percentage of the compound remaining in plasma ([8]; 37° C., 30 minutes): 0.3%; Percentage of the compound remaining in plasma ([8]; 37° C., 60 minutes): 0.0%; Percentage of the compound remaining in plasma ([8]; 37° C., 120 minutes): 0.0%
CC1CN(C(=O)OCOc2ccc([N+](=O)[O-])c3cccnc23)CCO1 (stereo not shown) [Compound 62, (5-nitroquinolin-8-yloxy)methyl 2-methylmorpholine-4-carboxylate] |  | 100.0 | 92.4 | 97.3 | 95.8 | 89.0 | 100.0 | 95.4 | 101.8 | 99.7 | 92.7 |  |  |  |  |  |  |  |  |  | stability in plasma [2]: high stability
CN(CC(=O)OCc1cccnc1N(C)C(=O)OCOc1ccc([N+](=O)[O-])c2cccnc12)C(=O)C(C)(C)C [Compound 66] |  |  |  |  |  |  |  |  |  |  |  | 540 (≈ 1000 µM) | 0.02 | 4.32 | 13.05 | 67.43 | 0.06 | 12.10 | 9.77 | 74.45 | water solubility compared with nitroxoline ([3]; conclusion in words): increased by several times
CC(OC(=O)C(C)C)Oc1ccc([N+](=O)[O-])c2cccnc12 (stereo not shown) [Compound 49, 1-(5-nitroquinolin-8-yloxy)ethyl isobutyrate] |  |  |  |  |  |  |  |  |  |  |  | 105 (≈ 344 µM) | 0.01 | 0.03 | 0.01 | 0.01 | 0.01 | 0.03 | 0.03 | 0.03 | 
